Measured values from patent US5817816A (Meiji Seika Kaisha, Ltd., priority 1997, dated 1998).

Biological target: T1, progesterone receptor (Sus scrofa, UniProt D0EWS6)
T1 construct: from tissue; host or cells: hog uterus, 100,000×g supernatant (cytosol)
T1 sequence (D0EWS6 1-934): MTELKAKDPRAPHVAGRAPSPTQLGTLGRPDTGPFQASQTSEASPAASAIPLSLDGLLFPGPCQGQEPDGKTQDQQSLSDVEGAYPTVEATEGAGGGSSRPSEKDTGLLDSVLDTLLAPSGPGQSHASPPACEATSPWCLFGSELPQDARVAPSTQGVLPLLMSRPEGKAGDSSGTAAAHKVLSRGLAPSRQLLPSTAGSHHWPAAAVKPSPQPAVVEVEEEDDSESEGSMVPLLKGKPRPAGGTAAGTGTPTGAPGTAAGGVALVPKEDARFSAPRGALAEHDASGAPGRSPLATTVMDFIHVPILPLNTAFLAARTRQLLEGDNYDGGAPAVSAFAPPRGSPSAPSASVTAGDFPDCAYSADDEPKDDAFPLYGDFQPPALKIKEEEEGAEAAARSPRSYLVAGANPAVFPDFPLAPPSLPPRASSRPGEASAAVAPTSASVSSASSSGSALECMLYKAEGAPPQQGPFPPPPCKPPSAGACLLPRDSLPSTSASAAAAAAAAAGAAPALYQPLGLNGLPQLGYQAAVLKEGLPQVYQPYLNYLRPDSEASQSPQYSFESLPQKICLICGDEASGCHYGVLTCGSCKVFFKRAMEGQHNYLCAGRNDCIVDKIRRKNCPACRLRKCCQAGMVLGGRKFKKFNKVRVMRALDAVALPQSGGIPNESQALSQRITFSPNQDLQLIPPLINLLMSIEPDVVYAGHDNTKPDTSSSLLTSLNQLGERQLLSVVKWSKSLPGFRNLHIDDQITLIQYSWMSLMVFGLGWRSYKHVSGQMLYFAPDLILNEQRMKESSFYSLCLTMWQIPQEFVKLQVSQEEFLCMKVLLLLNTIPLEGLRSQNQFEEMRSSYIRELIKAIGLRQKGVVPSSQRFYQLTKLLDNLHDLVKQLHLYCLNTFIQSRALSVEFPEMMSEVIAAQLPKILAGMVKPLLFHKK
Assay: Progesterone receptor binding inhibition ([3H]-progesterone, hog uterus cytosol)
Parameters: species or system hogs
Conditions: [3H]-progesterone ligand, 60 min at 4° C.
Protocol: That is, uteri taken from hogs were disrupted in 5 mM phosphate buffer by means of Polytron homogenizer, and this solution was centrifuged (100,000×g, 30 min) to separate the supernatant, thereby preparing a cytosol containing progesterone receptor. A given concentration of a test drug solution (10 μl) was added to a solution composed of 50 μl of the cytosol obtained Just above (2-3 mg protein/ml) and 40 μl of a solution of [^3 H]-progesterone as a ligand (3.84 TBq/mM, 18.5 kBq/ml), and they were incubated in a test tube for 60 min at 4° C. to effect a reaction. Then, 100 μl of a 0.5% activated carbon solution was added to the reaction solution, and the mixture was allowed to stand for 10 min and then centrifuged (2,000×g, 10 min). The radioactivity of the supernatant was measured with a liquid scintillation counter.
Separately, the radioactivity was measured in the same manner as described above, except that no test drug was added. Further, the radioactivity was measured in the same manner as described above, except that 10 μl of Medroxyprogesterone Acetate (MPA) (10 μg/ml) was added instead of the test drug. The radioactivity with no test drug added was defined as the amount of total binding of [^3 H]-progesterone to the cytosol, and the radioactivity with MPA added was defined as the amount of non-specific binding. […] [formula]

CC(=O)O[C@H]1CC(Cl)=C2C=C3OC(=O)C(C)=C3C[C@]2(C)[C@H]1C [Example 7a, 3β-Acetoxy-1-chloroeremophila-1(10),7(11),8(9)-trien-12,8-olide]
IC50: < 100 nM

CC(=O)O[C@H]1CC=C2C=C3OC(=O)C(C)=C3C[C@]2(C)[C@H]1C [Example 7b, 3β-Acetoxyeremophila-1(10),7(11),8(9)-trien-12,8-olide]
IC50: < 100 nM

COC(=O)C(C)=C1C[C@@]2(C)C(=CC1=O)C=C[C@H](OC(C)=O)[C@@H]2C [Example 14a, 3β-Acetoxy-8-oxoeremophila-1(2),7(11),9(10)-trien-12-oic acid methyl ester]
IC50: 600 nM

CC(=O)O[C@H]1C=CC2=C[C@H]3OC(=O)C(C)=C3C[C@]2(C)[C@H]1C [Example 15, 3β-Acetoxyeremophila-1(2),7(11),9(10)-trien-12,8β-olide]
IC50: < 100 nM

CC1=C2C[C@@]3(C)C(=CC=C[C@@H]3C)C=C2OC1=O [Example 16, Eremophila-1(10),2(3),7(11),8(9)-tetraen-12,8-olide]
IC50: 400 nM

CC(=O)O[C@H]1CC(Sc2ccccc2)=C2C=C3OC(=O)C(C)=C3C[C@]2(C)[C@H]1C [Example 21a, 3β-Acetoxy-1-phenylthioeremophila-1(10),7(11),8(9)-trien-12,8-olide]
IC50: 700 nM

CCOC1=C2C=C3OC(=O)C(C)=C3C[C@]2(C)[C@@H](C)[C@@H](OC(C)=O)C1 [Example 21b, 3β-Acetoxy-1-ethoxyeremophila-1(10),7(11),8(9)-trien-12,8-olide]
IC50: 279 nM
